Source: patent US20260076973A1 (priority 2023, published 2026)
Counter-ions that a name gives are not always drawn.

Tested on: SARS-CoV-2 (WA1)
Test: microbe, parasite or virus in culture
Format: cell-based
Conditions: Severe acute respiratory syndrome coronavirus 2, Vero C1008

Compound	IC50 [µM]
Cc1ccc(Nc2nc(N3CCOCC3)nc(N3CCOCC3)n2)cc1C [VIRADEM-10884, (3,4-dimethylphenyl)-(4,6-dimorpholin-4-yl-[1,3,5]triazin-2-yl)-amine]	0.08
Cc1ccc(Nc2nc(Nc3cccc(F)c3)nc(N3CCOCC3)n2)cc1Cl [VIRADEM-12292, N-(3-Chloro-4-methylphenyl)-N^1-(3-fluorophenyl)-6-morpholin-4-yl-[1,3,5]triazine-2,4-diamine]	0.15

Same assay, conditions: Severe acute respiratory syndrome coronavirus 2, Vero C1008, VIRADEM compounds, SARS-CoV-2(WA1) CPE assay, Round 2, concentration range 1000-0.05 nM, Vero E6; read-out: IC50

Compound	IC50 [µM]
C1CCC(Nc2nc(N3CCOCC3)nc(N3CCOCC3)n2)C1 [VIRADEM-14309, Cyclopentyl-(4,6-dimorpholin-4-yl-[1,3,5]triazin-2-yl)-amine]	> 1
Cc1ccc(NC2N=C(N)N=C(N3CCCC3)N2c2ccc(F)cc2)cc1C (centres unmarked) [VIRADEM-11809, N-(3,4-Dimethylphenyl)-N^1-(4-fluorophenyl)-6-pyrrolidin-1-yl-[1,3,5]triazine-2,4-diamine hydrochloride]	> 1
CC(C)c1ccc(Nc2nc(N3CCCC3)nc(N3CCCC3)n2)cc1 [VIRADEM-12307, (4,6-Dipyrrolidin-1-yl-[1,3,5]triazin-2-yl)-(4-isopropylphenyl)-amine hydrochloride]	> 1
Cc1cccc(N2C(N3CCOCC3)=NC(N)=NC2Nc2cccc(F)c2)c1 (centres unmarked) [VIRADEM-11786, N-(3-Fluorophenyl)-6-morpholin-4-yl-N^1-m-tolyl-[1,3,5]triazine-2,4-diamine hydrochloride]	0.38
CCc1cccc(Nc2nc(N3CCOCC3)nc(N3CCOCC3)n2)c1 [VIRADEM-15248, (4,6-Dimorpholin-4-yl-[1,3,5]triazin-2-yl)-(3-ethylphenyl)-amine]	> 1
COc1ccc(Nc2nc(N3CCOCC3)nc(N3CCCc4ccccc43)n2)cc1 [VIRADEM-15272, [4-(3,4-Dihydro-2H-quinolin-1-yl)-6-morpholin-4-yl-[1,3,5]triazin-2-yl]-(4-methoxyphenyl)-amine]	> 1
c1cc2c(cc1CNc1nc(N3CCOCC3)nc(N3CCOCC3)n1)OCO2 [VIRADEM-15201, Benzo[1,3]dioxol-5-ylmethyl-(4,6-dimorpholin-4-yl-[1,3,5]triazin-2-yl)-amine]	> 1
c1cc2c(cc1Nc1nc(Nc3ccc4c(c3)OCO4)nc(N3CCOCC3)n1)OCO2 [VIRADEM-11566, N,N^1-bis-benzo[1,3]dioxol-5-yl-6-morpholin-4-yl-[1,3,5]triazine-2,4-diamine]	0.32
COc1ccc(CC(=O)N(N)c2nc(N3CCOCC3)nc(N3CCOCC3)n2)cc1 [VIRADEM-14302, (4-Methoxyphenyl)-acetic acid N1-(4,6-dimorpholin-4-yl-[1,3,5]triazin-2-yl)-hydrazide]	> 1
NC(=O)C1CCN(c2nc(N3CCOCC3)nc(N3CCOCC3)n2)CC1 [VIRADEM-15361, 1-(4,6-Dimorpholin-4-yl-[1,3,5]triazin-2-yl)-piperidine-4-carboxylic acid amide]	> 1
Clc1ccc(Nc2nc(N3CCOCC3)nc(N3CCOCC3)n2)cc1Cl [VIRADEM-10258, (3,4-Dichlorophenyl)-(4,6-dimorpholin-4-yl-[1,3,5]triazin-2-yl)-amine hydrochloride]	0.61
Cc1ccc(N2C(N3CCOCC3)=NC(N)=NC2Nc2cccc(F)c2)cc1 (centres unmarked) [VIRADEM-11785, N-(3-Fluorophenyl)-6-morpholin-4-yl-N^1-p-tolyl-[1,3,5]triazine-2,4-diamine hydrochloride]	0.17
Clc1ccc(Oc2nc(N3CCOCC3)nc(N3CCOCC3)n2)cc1 [VIRADEM-15106, 2-(4-Chlorophenoxy)-4,6-dimorpholin-4-yl-[1,3,5]triazine]	> 1
COc1cccc(NC2N=C(N)N=C(N3CCOCC3)N2c2ccccc2)c1 (centres unmarked) [VIRADEM-12252, N-(3-Methoxyphenyl)-6-morpholin-4-yl-N^1-phenyl-[1,3,5]triazine-2,4-diamine hydrochloride]	0.11
COc1ccccc1N1C(N2CCOCC2)=NC(N)=NC1Nc1cc(C)cc(C)c1 (centres unmarked) [VIRADEM-12270, N-(3,5-Dimethylphenyl)-N^1-(2-methoxyphenyl)-6-morpholin-4-yl-[1,3,5]triazine-2,4-diamine hydrochloride]	0.38
Cc1ccc(Nc2nc(C3CCNC3)nc(C3CCNC3)n2)cc1 (centres unmarked) [VIRADEM-11139, (4,6-Dipyrrolidin-4-yl-[1,3,5]triazin-2-yl)-p-tolyl-amine hydrochloride]	> 1
Clc1cccc(Nc2nc(N3CCCCC3)nc(N3CCCCC3)n2)c1 [VIRADEM-11499, (3-Chlorophenyl)-(4,6-dipiperidine-1-yl-[1,3,5]triazin-2-yl)-amine hydrochloride]	> 1

Compound	IC50 [µM]
CC(=O)c1cccc(Nc2nc(Nc3cccc(C)c3)nc(N3CCOCC3)n2)c1 [VIRADEM-11778, 1-[3-(4-Morpholin-4-yl-6-m-tolylamino-[1,3,5]triazin-2-ylamino)-phenyl]-ethanone hydrochloride]	0.32
c1cc2c(cc1Nc1nc(N3CCCC3)nc(N3CCCC3)n1)OCO2 [VIRADEM-11522, Benzo[1,3]dioxol-5-yl-(4,6-dipyrrolidin-1-yl-[1,3,5]triazin-2-yl)-amine hydrochloride]	> 1
c1ccc2c(c1)CCN2c1nc(N2CCOCC2)nc(N2CCOCC2)n1 [VIRADEM-15355, 1-(4,6-Dimorpholin-4-yl-[1,3,5]triazin-2-yl)-2,3-dihydro-1H-indole]	> 1
CC(=O)c1cccc(Nc2nc(Nc3ccc(Cl)cc3)nc(N3CCOCC3)n2)c1 [VIRADEM-11882, 1-{3-[4-(4-chlorophenylamino)-6-morpholin-4-yl-[1,3,5]triazin-2-ylamino]-phenyl}-ethanone]	0.12
CCOC(=O)c1ccc(Nc2nc(Nc3ccc(F)cc3)nc(N3CCOCC3)n2)cc1 [VIRADEM-11660, 4-[4-(4-Fluorophenylamino)-6-morpholin-4-yl-[1,3,5]triazin-2-ylamino]benzoic acid ethyl ester]	0.12
c1ccc(Oc2ccc(Nc3nc(C4CCNC4)nc(C4CCNC4)n3)cc2)cc1 (centres unmarked) [VIRADEM-11503, (4,6-Dipyrrolidin-4-yl-[1,3,5]triazin-2-yl)-(4-phenoxyphenyl)-amine hydrochloride]	> 1
COc1cccc(Nc2nc(N3CCOCC3)nc(N3CCOCC3)n2)c1 [VIRADEM-10879, (4,6-Dimorpholin-4-yl-[1,3,5]triazin-2-yl)-(3-methoxyphenyl)-amine hydrochloride]	> 1
COc1ccccc1Nc1nc(N2CCOCC2)nc(N2CCOCC2)n1 [VIRADEM-10881, (4,6-Dimorpholin-4-yl-[1,3,5]triazin-2-yl)-(2-methoxyphenyl)-amine hydrochloride]	> 1
COc1ccc(Nc2nc(Nc3ccc(C(N)=O)cc3)nc(N3CCOCC3)n2)cc1 [VIRADEM-15356, 4-[4-(4-Methoxyphenylamino)-6-morpholin-4-yl-[1,3,5]triazin-2-ylamino]-benzamide]	0.12
CC(=O)c1cccc(Nc2nc(Nc3ccc(F)cc3)nc(N3CCOCC3)n2)c1 [VIRADEM-11883, 1-{3-[4-(4-Fluorophenylamino)-6-morpholin-4-yl-[1,3,5]triazin-2-ylamino]-phenyl}-ethanone hydrochloride]	> 1
Cc1cc(C)cc(Nc2nc(N3CCOCC3)nc(N3CCOCC3)n2)c1 [VIRADEM-10887, (3,5-Dimethylphenyl)-(4,6-dimorpholin-4-yl-[1,3,5]triazin-2-yl)-amine]	> 1
CCCCc1ccc(Nc2nc(N3CCCC3)nc(N3CCCC3)n2)cc1 [VIRADEM-11511, (4-Butylphenyl)-(4,6-dipyrrolidin-1-yl-[1,3,5]triazin-2-yl)-amine hydrochloride]	> 1
Cc1ccc(Nc2nc(N3CCOCC3)nc(N3CCOCC3)n2)cc1Cl [VIRADEM-10886, (3-Chloro-4-methylphenyl)-(4,6-dimorpholin-4-yl-[1,3,5]triazin-2-yl)-amine hydrochloride]	0.31
CCOc1ccc(Nc2nc(N3CCCC3)nc(N3CCCC3)n2)cc1 [VIRADEM-11515, (4,6-Dipyrrolidin-1-yl-[1,3,5]triazin-2-yl)-(4-ethoxyphenyl)-amine hydrochloride]	> 1
c1ccc(CNc2nc(N3CCOCC3)nc(N3CCOCC3)n2)cc1 [VIRADEM-15209, Benzyl-(4,6-dimorpholin-4-yl-[1,3,5]triazin-2-yl)-amine]	> 1
Fc1ccc(Nc2nc(N3CCOCC3)nc(N3CCOCC3)n2)cc1 [VIRADEM-10849, (4,6-Dimorpholin-4-yl-[1,3,5]triazin-2-yl)-(4-fluorophenyl)-amine hydrochloride]	> 1
COc1ccc(CCNc2nc(N3CCOCC3)nc(N3CCOCC3)n2)cc1OC [VIRADEM-15243, [2-(3,4-Dimethoxyphenyl)-ethyl]-(4,6-dimorpholin-4-yl-[1,3,5]triazin-2-yl)-amine]	> 1

Same assay, conditions: VIRADEM compounds, SARS-CoV-2(WA1) CPE assay, Round 2, concentration range 1000-0.05 nM, Vero E6; read-out: IC50

Compound	IC50 [µM]
Cc1ccc(Nc2nc(Nc3cccc4ccccc34)nc(N3CCOCC3)n2)cc1 [VIRADEM-15279, 6-Morpholin-4-yl-N-naphtalen-1-yl-N^1-p-tolyl-[1,3,5]triazine-2,4-diamine]	0.08
Cc1cccc(Nc2nc(Nc3ccc(C(C)C)cc3)nc(N3CCOCC3)n2)c1 [VIRADEM-12251, N-(4-Isoproylphenyl)-6-morpholin-4-yl-N^1-m-tolyl-[1,3,5]triazine-2,4-diamine hydrochloride]	0.56
CCNc1nc(NCC)nc(Nc2ccc(C)c(C)c2)n1 [VIRADEM-11768, N-(3,4-Dimethylhenyl)-N^1,N^2-diethyl-[1,3,5]triazine-2,4,6-triamine hydrochloride]	> 1
CCOC(=O)c1ccc(Nc2nc(Nc3ccc(C)c(C)c3)nc(N3CCOCC3)n2)cc1 [VIRADEM-11913, 4-[4-(3,4-Dimethylphenylamino)-6-morpholin-4-yl-[1,3,5]-2-ylamino]-benzoic acid ethyl ester]	0.04
CCc1ccc(Nc2nc(Nc3ccc(Cl)c(Cl)c3)nc(N3CCOCC3)n2)cc1 [VIRADEM-11758, N-(3,4-Dichlorophenyl)-N^1-(4-ethyphenyl)-6-morpholin-4-yl-[1,3,5]triazine-2,4-diamine]	> 1
